In US20230069886A1, “AROMATIC SULPHONAMIDES DERIVATIVES THAT INHIBITS PDI A3, THEIR SYNTHESIS AND USE” (Uniwersytet Jagiellonski, priority 2020, published 2023):
In brackets after ≈: the same amount, converted by molar mass.

Experiments:
[1] = system: MDA-MB-231; experiment: MTT antiproliferative assay, 72 h, with or without estradiol, MDA-MB-231; assay type: cell-based, human
Experimental: Anticancer activity of selected compounds of invention, PDI A3-inhibitors has been also tested in vitro in antiproliferative assay in normoxic and hypoxic conditions as well in estrogen-stimulated cancer cells. In the experiment, cells were seeded on 96-well plates (Sarstedt, Germany) in appropriate culture medium at a density of 10^5 cells/mL 24 h before adding the tested compounds. Cells were treated with each compound in four concentrations in the range 0.1-100 μg/mL. […] After 72 h of compound treatment at 37° C., 5% CO2 humid atmosphere and in wo different oxygen level conditions: 21%—normal and <1%—hypoxia. In some experiments the MDA-MB-231 and MCF-7 cells were seeded with or without 200 nM estradiol and after 24 h the tested compounds were added. A previously described sulforhodamine B antiproliferative assay was used with minor modifications (Skehan P et al., 1990). Briefly, cells were fixed with 50 μL/well of 50% (w/v) trichloroacetic acid (Avantor Performance Materials, Gliwice, Poland). After 1 h incubation, plates were washed several times with tap water and 50 μL of 0.4% (w/v) solution of sulforhodamine B (Sigma-Aldrich, Germany) in 1% (v/v) acetic acid (Avantor Performance Materials, Gliwice, Poland) was added to each well. After 30 min incubation at room temperature, unbound dye was washed out with 1% (v/v) acetic acid, whereas bound dye was solubilized with 10 mM unbuffered TRIS (Avantor Performance Materials, Gliwice, Poland) solution. The entire procedure was performed using a BioTek EL-406 washing station (BioTek Instruments, USA). After additional 30 min, absorbance was read using a Biotek Hybrid H4 reader (BioTek Instruments, USA) at 540 nm wavelength. MTT assay was used alternatively for HL-60 cell line and in the experiment in which estrogens are added (specified in the table legend). Absorbance was measured using a Biotek Hybrid H4 reader at 570 nm wavelength for MTT assay.
Compounds at each concentration were tested in triplicate in a single experiment and each experiment was repeated at least three times independently. Results are presented as mean IC50±SD.

[2] = system: MDA-MB-231; experiment: MTT antiproliferative assay, 48 h, MDA-MB-231; assay type: cell-based, human; settings: 48-hour exposition, read-out: Cytotoxicity, IC50, μM MDA-MB-231
Experimental: Anticancer activity of compounds of invention, PDI A3-inhibitors has been tested in vitro in classical antiproliferative assay in various cancer cells lines. Monolayer tumor cell lines MDA-MB-231 (human mammary breast adenocarcinoma), MCF-7 (human breast adenocarcinoma, estrogen-positive), HT-1080 (human fibrosarcoma) and Caco-2 (human colon adenocarcinoma) were cultured in standard medium DMEM (Dulbecco's modified Eagle's medium) (“Sigma”) supplemented with 10% foetal bovine serum (“Sigma”). About 2000-4000 cells per well (depending on line nature) were placed in 96-well plates and after 24 h compounds were added to the wells. Untreated cells were used as a control. The plates were incubated for 48 h, 37° C., 5% CO2. The number of surviving cells was determined using 3-(4,5-dimethylthiazol-2-yl)-2,5-diphenyltetrazolinium bromide (MTT). MTT-test: after incubating culture medium was removed and 200 μL fresh medium with 20 μL MTT (2 mg/mL in HBSS) was added in each well of the plate. After incubation (3 hr., 37° C., 5% CO2), the medium with MTT was removed and 200 μL DMSO were added at once to each sample. The samples were tested at 540 nm on Thermo Scientific Multiskan EX microplate photometer. The half-maximal inhibitory concentration (IC50) of each compound was calculated using Graph Pad Prism® 3.0.

[3] = system: arterial thrombosis; experiment: In vivo models of arterial thrombosis; parameters: species or system rat or mice; settings: FIG. 5
Experimental: To confirm antithrombotic activity of compounds of invention, inhibitors of PDIA3, pharmacological activity of selected compounds was tested in vivo in the rat or mice model of arterial thrombosis. Wistar rats were anaesthetized with pentobarbital (40 mg/kg, i.p.) and placed in a supine position on a heated (37° C.) operating table. Arterial thrombosis was induced by electrical stimulation of the right common carotid artery, as previously described (Kramkowski et al., 2012). Briefly, the anode, a stainless steel L-shaped wire, was inserted under the artery and connected to a constant current generator. The cathode was attached subcutaneously to the hind limb. The artery was stimulated (1 mA) for 10 min. Fifty-five minutes after the beginning of stimulation, the segment of the common carotid artery containing the formed thrombus was dissected and opened lengthwise, and the thrombus was completely removed and air-dried at room temperature for 24 h. Thrombus was then weighed in a blinded manner. Antithrombotic effects of compounds of invention in mice was analyzed using intravital fluorescence confocal microscopy as described previously (Hayashi T et al., 2008). […] Changes in fluorescence intensity were measured as described previously (Hayashi T et al., 2008, Kramkowski et al., 2002)

For `COC(=O)C1CN1S(=O)(=O)c1ccc2c(C=O)c(N(C)C)ccc2c1` (centres unmarked) [Compound C-3390, Methyl 1-[[6-(dimethylamino)-5-formyl-2-naphthyl]sulfonyl]aziridine-2-calboxylate], the “Sensitivity of MDA-MB-231 line after treatment with estradiol” value ([1]; estradiol (200 nM), Table 4) was “slightly lower sensitivity”, the “IC50 [μg/ml] MDA-MB-231 normal” value ([1]; not pretreated with estradiol, 72 hours exposition, MTT) was 3.2 ± 0.2 µg/mL (≈ 8.83 µM) and the “IC50 [μg/ml] MDA-MB-231 +estradiol” value ([1]; pretreated with 200 nM estradiol, 72 hours exposition, MTT) was 9.4 ± 3.5 µg/mL (≈ 25.9 µM). For the same molecule, the IC50 [2] was 18 ± 0.1 µM and the “Anti-thrombotic effects in vivo” value [3] was “anti-thrombotic effects”.
